In US12678447B2, “Combinations of RIPK1- and IKK-inhibitors for the prevention or treatment of immune diseases” (Universität zu Köln, priority 2017, dated 2026):
“Also recorded” adds a separate entry of the source.

Test system: bone marrow derived macrophages (BMDMs)
Experiment: LPS-induced IL-1β secretion in BMDMs treated with IKK2 inhibitors (ELISA)
Type: cell-based, mouse
Method: Bone marrow was isolated from the tibiae and femurs of one WT and one Ripk1^D138N/D138N mouse (6-7 week old). Bone marrow from one leg of each mouse was immediately frozen Bone marrow cells from the other leg were spun down at 1200 rpm, for 5 min and seeded in 15 cm^2 non-treated cell culture plates in 20 ml of medium containing 10 ng/ml M-CSF. Cells were allowed to differentiate for six days and subsequently adherent BMDMs were lifted, counted and seeded at a density of 2×10^5 cells/well in a 48 well plate. The day after, cells were pretreated with different concentrations of the IKK2 inhibitors for 30 min before stimulation with 100 ng/ml LPS in a total volume of 250 μl. Each experimental condition was assayed in triplicate. 20-24 h later supernatants were removed, cleared from floating cells and were frozen until cytokine measurements. IL-1β concentration was determined with a specific ELISA (eBioscience) following the manufacturer's instructions.
For the experiment with Nec1 the frozen bone marrow cells were used. After thawing, macrophages were differentiated as described above for fresh bone marrow cells. Necrostatin-1 (Nec-1) was added together with the IKK2 inhibitors during the 30 min pretreatment BMDMs were stimulated with LPS for 20-24 h and supernatants were kept for ELISA measurements. […]

Row | SMILES | amount of secreted IL-1β (LPS-induced, in BMDMs treated with IKK2 inhibitors) (Nec1 added together with IKK2 inhibitors during 30 min pretreatment, 100 ng/ml LPS for 20-24 h, FIG. 1B) | IL-1β secretion upon LPS stimulation (WT BMDMs pretreated 30 min with IKK2 inhibitor, then 100 ng/ml LPS for 20-24 h, IL-1β ELISA of supernatant)
1 | CN1C(=O)C(Cc2c[nH]c3ccccc23)NC1=S (centres unmarked) [Necrostatin-1, 5-(1H-indo1-3-ylmethyl)-3-methyl-2-thioxo-4-imidazolidinone] | strongly diminished the LPS-induced production of IL-1β; also recorded: strongly reduced the amount of secreted IL-1β | 
2 | NC(=O)Nc1sc(-c2ccc(F)cc2)cc1C(N)=O [TPCA-1] |  | greater potency
